Laboratory results: publication PMC4114247 (Cancer research, 2009)
Entries after “also recorded” stand apart in the source; their conditions may differ.

Columns and labels:
[1] = system: NCr nude mice bearing LNCaP xenografts; test: Mouse tissue distribution, LNCaP xenografts; assay type: in vivo; conditions: mouse, in vivo; for Ratio Tumor:Blood / Ratio Tumor:Skeletal Muscle / Tissue distribution: Adipose / Tissue distribution: Blood / Tissue distribution: Bone / Tissue distribution: Brain / Tissue distribution: Heart / Tissue distribution: Kidneys / Tissue distribution: Lg Intestine / Tissue distribution: Liver / Tissue distribution: Lungs / Tissue distribution: Sm Intestine / Tissue distribution: Spleen / Tissue distribution: Stomach / Tissue distribution: Testes / Tissue distribution: Sk.Muscle / Tissue distribution: Tumor (LNCaP xenograft): male, athymic NCr-nu/nu
[2] = system: NCr-nu/nu mice bearing PC3 xenografts; test: Mouse tissue distribution, PC3 xenografts; assay type: in vivo; conditions: PSMA deficient PC3 xenografts
[3] = system: mice bearing LNCaP xenografts; test: SPECT/CT imaging, LNCaP xenografts; assay type: in vivo, mouse; conditions: 4 hr after injection
[4] = Stability in liver microsomes; assay type: in vitro ADME; conditions: data not shown
[5] = Stability in blood plasma; assay type: in vitro ADME; conditions: data not shown
[6] = system: PC3 cells (PSMA negative); test: Direct binding to PC3 cells; conditions: 3 nM radioligand, 1 hour; PC3 cells lack PSMA
[7] = molecular target: LNCaP cells (PSMA positive) (Homo sapiens, UniProt Q04609); test: Direct binding to LNCaP cells
PC3 PIP (PSMA +) tumors = test: SPECT/CT imaging, PC3 PIP; conditions: 2 hr after injection

LNCaP cells (PSMA positive), sequence (Q04609 whole entry): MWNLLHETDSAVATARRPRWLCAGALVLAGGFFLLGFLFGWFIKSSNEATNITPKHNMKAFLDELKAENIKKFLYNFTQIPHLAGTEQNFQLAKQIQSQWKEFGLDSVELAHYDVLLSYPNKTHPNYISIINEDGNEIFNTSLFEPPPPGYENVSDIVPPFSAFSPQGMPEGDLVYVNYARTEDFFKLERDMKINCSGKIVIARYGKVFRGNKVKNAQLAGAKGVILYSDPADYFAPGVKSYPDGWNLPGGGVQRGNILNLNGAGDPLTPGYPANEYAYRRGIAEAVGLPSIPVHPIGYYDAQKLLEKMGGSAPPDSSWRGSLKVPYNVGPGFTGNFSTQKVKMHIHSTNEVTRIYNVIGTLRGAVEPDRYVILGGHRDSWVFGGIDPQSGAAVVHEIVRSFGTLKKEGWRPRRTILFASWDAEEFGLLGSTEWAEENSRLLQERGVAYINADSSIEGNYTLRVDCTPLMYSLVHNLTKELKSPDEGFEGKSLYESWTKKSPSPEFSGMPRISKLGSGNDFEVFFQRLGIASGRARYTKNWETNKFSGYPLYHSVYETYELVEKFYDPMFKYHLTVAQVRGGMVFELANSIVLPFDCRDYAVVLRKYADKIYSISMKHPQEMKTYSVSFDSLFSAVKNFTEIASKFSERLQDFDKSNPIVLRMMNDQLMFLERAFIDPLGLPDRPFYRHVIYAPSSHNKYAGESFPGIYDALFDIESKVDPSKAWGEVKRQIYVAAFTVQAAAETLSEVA

## O=C(O)CC[C@H](NC(=O)N[C@@H](CCCCNC(=O)Nc1ccc(I)cc1)C(=O)O)C(=O)O [[^123I]MIP-1095, (S)-2-(3-((S)-1-carboxy-5-(3-(4-iodophenyl)ureido)pentyl)ureido)pentanedioic acid]
[1]; 4 h
  Ratio Tumor:Blood: 40.6
  Ratio Tumor:Skeletal Muscle: 133
  Tissue distribution: Adipose: 0.86 ± 0.43 %ID/g
  Tissue distribution: Blood: 0.84 ± 0.23 %ID/g
  Tissue distribution: Bone: 0.25 ± 0.04 %ID/g
  Tissue distribution: Brain: 0.44 ± 0.91 %ID/g
  Tissue distribution: Heart: 0.53 ± 0.09 %ID/g
  Tissue distribution: Kidneys: 77.5 ± 16.6 %ID/g
  Tissue distribution: Lg Intestine: 7.55 ± 7.69 %ID/g
  Tissue distribution: Liver: 7.82 ± 1.01 %ID/g
  Tissue distribution: Lungs: 1.6 ± 0.53 %ID/g
  Tissue distribution: Sm Intestine: 6.64 ± 3.19 %ID/g
  Tissue distribution: Spleen: 2.06 ± 0.63 %ID/g
  Tissue distribution: Stomach: 4.09 ± 1.36 %ID/g
  Tissue distribution: Testes: 0.84 ± 0.18 %ID/g
[1]; 8 h
  Ratio Tumor:Blood: 57.5
  Ratio Tumor:Skeletal Muscle: 121
  Tissue distribution: Adipose: 2.63 ± 4.66 %ID/g
  Tissue distribution: Blood: 0.49 ± 0.21 %ID/g
  Tissue distribution: Bone: 0.28 ± 0.13 %ID/g
  Tissue distribution: Brain: 0.07 ± 0.02 %ID/g
  Tissue distribution: Heart: 0.38 ± 0.12 %ID/g
  Tissue distribution: Kidneys: 54.8 ± 19.1 %ID/g
  Tissue distribution: Lg Intestine: 12.28 ± 5.35 %ID/g
  Tissue distribution: Liver: 3.79 ± 0.87 %ID/g
  Tissue distribution: Lungs: 1.53 ± 1 %ID/g
  Tissue distribution: Sk.Muscle: 0.23 ± 0.13 %ID/g
  Tissue distribution: Sm Intestine: 3.66 ± 0.9 %ID/g
  Tissue distribution: Spleen: 1.34 ± 0.63 %ID/g
  Tissue distribution: Stomach: 4.43 ± 2.28 %ID/g
  Tissue distribution: Testes: 0.6 ± 0.12 %ID/g
  Tissue distribution: Tumor (LNCaP xenograft): 28.1 ± 12.8 %ID/g
[1]; 24 h
  Ratio Tumor:Blood: 174
  Ratio Tumor:Skeletal Muscle: 304
  Tissue distribution: Adipose: 0.52 ± 0.25 %ID/g
  Tissue distribution: Blood: 0.17 ± 0.1 %ID/g
  Tissue distribution: Bone: 0.27 ± 0.19 %ID/g
  Tissue distribution: Brain: 0.03 ± 0.01 %ID/g
  Tissue distribution: Heart: 0.15 ± 0.08 %ID/g
  Tissue distribution: Kidneys: 27 ± 26.2 %ID/g
  Tissue distribution: Lg Intestine: 4.49 ± 3.09 %ID/g
  Tissue distribution: Liver: 1.31 ± 0.63 %ID/g
  Tissue distribution: Lungs: 0.55 ± 0.42 %ID/g
  Tissue distribution: Sk.Muscle: 0.1 ± 0.04 %ID/g
  Tissue distribution: Sm Intestine: 0.76 ± 0.48 %ID/g
  Tissue distribution: Spleen: 0.45 ± 0.29 %ID/g
  Tissue distribution: Stomach: 1.15 ± 1.2 %ID/g
  Tissue distribution: Testes: 0.27 ± 0.23 %ID/g
  Tissue distribution: Tumor (LNCaP xenograft): 29.1 ± 15.1 %ID/g
[1]
  Blood-brain barrier crossing: do not cross the blood-brain barrier
  Route of clearance: by both urinary and hepatobiliary routes
[2]
  Localization to PC3 tumors: not to the PSMA deficient PC3 tumors
[3]
  SPECT/CT uptake in kidney and LNCaP tumor: high uptake
[4]
  Stability in liver microsomes: stable
[5]
  Stability in blood plasma: stable
[6]
  Binding to PC3 cells: no binding; also recorded: not to the PSMA deficient PC3 cells
[7]; 3 nM radioligand with 10 µM non-radiolabeled compound or 10 µM PMPA
  Binding to LNCaP cells in the presence of non-radiolabeled compound or PMPA: abolished; also recorded: inhibited
[7]; 3 nM radioligand, 1 hour, room temperature
  Binding to LNCaP cells: bound
PC3 PIP (PSMA +) tumors
  SPECT/CT detection of PC3 PIP (PSMA +) tumors: detected
